In PubChem BioAssay (NCI) one finds TGI data, which are given here for seven molecules.

By TGI is commonly meant the concentration at which net growth stops. A lower TGI goes with greater sensitivity of the cells.

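Values below derive from 48-hour exposures of cells grown in 96-well plates, with endpoints linearly interpolated between the two concentrations bracketing the appropriate inhibition level. TGI denotes the concentration required for complete inhibition of growth.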

Test systems include OVCAR-8 ovarian; HCT-15 colon; IGROV1 ovarian; NCI-H23 lung; MOLT-4 leukemia; OVCAR-4 ovarian; NCI-H460 lung; HCC-2998 colon; M14 melanoma; DMS 114 small cell lung; SR leukemia; SF-295 CNS; A549 NSCLC; HL-60(TB) leukemia; CCRF-CEM leukemia; SK-OV-3 ovarian; MCF7 breast.
Common to all, as to assay: DTP human tumour cell line panel, 48 h

On to `O=C(c1ccccc1)c1nc2ccc(Cl)cc2c2c1CCCO2`, for which the TGI in the test on OVCAR-8 ovarian, with HCT-15 colon, in the test with IGROV1 ovarian, with NCI-H23 lung, in the test with MOLT-4 leukemia and in the test on OVCAR-4 ovarian was above 100 µM throughout. The TGI with NCI-H460 lung, with HCC-2998 colon, with M14 melanoma, in the test on DMS 114 small cell lung, in the test with SR leukemia and in the test with SF-295 CNS was above 100 µM each time.

`Cc1ccc2c(ccc(/C=C\c3cc(C)c4cccnc4c3O)[n+]2C)c1`: the TGI was 24.1 µM in the test with OVCAR-8 ovarian; above 100 µM with IGROV1 ovarian; 53.4 µM in the test on NCI-H23 lung; 28.4 µM in the test with MOLT-4 leukemia; 39 µM in the test on OVCAR-4 ovarian; 18 µM with NCI-H460 lung. Besides, the TGI with HCC-2998 colon stood at 11.6 µM; in the test with M14 melanoma it was 25.5 µM; in the test with A549 NSCLC it was 40.9 µM; in the test on DMS 114 small cell lung it was 7.54 µM; in the test on HL-60(TB) leukemia, 19.7 µM; in the test with SR leukemia it was 25.4 µM. The TGI with SF-295 CNS was 26.9 µM; in the test on CCRF-CEM leukemia it was 26 µM.

On to `Clc1ccc(C[P+]2(c3ccccc3)CCCCC2)cc1`, for which the TGI in the test with OVCAR-8 ovarian, in the test on HCT-15 colon, in the test on SK-OV-3 ovarian, with IGROV1 ovarian, with NCI-H23 lung and in the test on MOLT-4 leukemia was above 100 µM throughout. For the same molecule, the TGI in the test on NCI-H460 lung was above 100 µM; in the test on HCC-2998 colon it was above 100 µM; with M14 melanoma, above 100 µM; in the test on A549 NSCLC, above 100 µM; with DMS 114 small cell lung it was above 100 µM; with HL-60(TB) leukemia, 93.9 µM. Further, the TGI in the test on SR leukemia, in the test with SF-295 CNS and with CCRF-CEM leukemia was above 100 µM throughout.

`Cc1ccc(C2COc3cc(O)c(O)cc3C2)cc1` (stereo not given): the TGI with OVCAR-8 ovarian came to 44.7 µM; in the test with HCT-15 colon it was 31.8 µM; in the test with SK-OV-3 ovarian it was 275 µM; with IGROV1 ovarian, 38.5 µM; in the test on NCI-H23 lung, 65.6 µM; with MOLT-4 leukemia, 18.6 µM. Also, the TGI turned out to be 62 µM in the test on OVCAR-4 ovarian; 236 µM in the test on NCI-H460 lung; 172 µM with HCC-2998 colon; 192 µM in the test with A549 NSCLC; 37 µM in the test on DMS 114 small cell lung; 8.27 µM in the test with HL-60(TB) leukemia. The TGI with SF-295 CNS came to 134 µM; in the test on MCF7 breast, 114 µM; with CCRF-CEM leukemia, 12.3 µM.

As for `OCc1cc2ccncc2c2c1[nH]c1ccccc12`, the TGI in the test with OVCAR-8 ovarian is 49.3 µM; with HCT-15 colon it was 91.5 µM; in the test on IGROV1 ovarian, 17.1 µM; in the test on NCI-H23 lung, 48.2 µM; in the test with MOLT-4 leukemia, above 100 µM; in the test with OVCAR-4 ovarian it was 26.8 µM. The TGI is 19.5 µM in the test with NCI-H460 lung; 22.1 µM with HCC-2998 colon; 43.8 µM with M14 melanoma; 24.8 µM in the test with A549 NSCLC; 23.1 µM in the test with DMS 114 small cell lung; 24.9 µM with HL-60(TB) leukemia. The values for the TGI with SR leukemia, in the test on SF-295 CNS and in the test with CCRF-CEM leukemia were 20 µM, 25.1 µM and above 100 µM, respectively.

As for `COc1cc(C(=O)CC2OC(=O)C(Cl)=C2Cl)ccc1Cl` (stereo not given), the TGI in the test with OVCAR-8 ovarian, with HCT-15 colon, in the test on SK-OV-3 ovarian, in the test on IGROV1 ovarian, in the test on NCI-H23 lung and in the test on MOLT-4 leukemia was above 100 µM each time. The TGI in the test on OVCAR-4 ovarian, in the test on NCI-H460 lung, with HCC-2998 colon, in the test on M14 melanoma, with A549 NSCLC and in the test with DMS 114 small cell lung was above 100 µM throughout. Further, the TGI with HL-60(TB) leukemia, with SR leukemia, in the test with SF-295 CNS and in the test on CCRF-CEM leukemia was above 100 µM in each case.

Take `CN=C(N)c1ccc(N=C(N)c2ccc(C(N)=Nc3ccc(C(N)=NC)cc3)cc2)cc1`: the TGI with OVCAR-8 ovarian, in the test with HCT-15 colon, in the test with SK-OV-3 ovarian, in the test with IGROV1 ovarian, in the test with MOLT-4 leukemia and with OVCAR-4 ovarian was above 100 µM throughout. For the same molecule, the TGI in the test on NCI-H460 lung, in the test with M14 melanoma, with A549 NSCLC, with DMS 114 small cell lung, in the test with HL-60(TB) leukemia and in the test with SF-295 CNS was above 100 µM in each case. Besides, the TGI in the test with CCRF-CEM leukemia was above 100 µM.
